Data as given in patent US20250196055A1, “PROCESS FOR CAPTURING CO2 FROM A MOBILE SOURCE USING AN AMINO ACID SOLVENT” (SAUDI ARABIAN OIL COMPANY, priority 2021, published 2025).
One block for each compound: values may come before it.

Experiments:
[1] = Solubility testing in gas bubbler/sparger with continuous 9 mol % CO2 in N2; settings: 9 mol % CO2, ambient conditions
[2] = Preliminary solubility testing of CO2-loaded amino/amino-sulfonic acid solutions (precipitation temperature); type: physicochemical; settings: for solubility of CO2-loaded solution (in words): CO2 loaded 0.35-0.45 mol CO2/mol alk., lowest limit of apparatus −10° C.; for Precipitation Temperature: ambient pressure, test range −10° C. to 40° C.
Method: Preliminary solubility testing was carried out with various amino and amino-sulfonic acids and blends thereof to determine the propensity for solids precipitation. These blends were loaded with CO2 under representative process conditions: a CO2 loading from 0.35 to 0.45 mol CO2/mol alkalinity at ambient pressure and a temperature from −10° C. to 40° C. CO2 loading was achieved by addition of potassium bicarbonate instead of some potassium hydroxide as the neutralizing agent. The loading (in mol CO2 per mol alkalinity) was determined from the following equation: […]

[3] = Continuous test plant: membrane contactor CO2 absorption from exhaust and solvent regeneration in stripper; settings: for solids at ambient conditions (in words): atmospheric pressure and room temperature

- precipitation when 9 mol % CO2 continuously injected (in words) [1]: did not precipitate
Structure (SMILES): CC(C)(N)C(=O)O [1 m AlBA, Amino isobutyric acid]

- precipitation when 9 mol % CO2 continuously injected (in words) [1]: did not precipitate
Structure (SMILES): NCCCS(=O)(=O)O [3 m HTAU, homotaurine]

- precipitation when 9 mol % CO2 continuously injected (in words) [1]: did not precipitate
Structure (SMILES): CN[C@@H](C)C(=O)O [3 m NMA, n-methyl-alanine]

- Solid Observed ([3]; 210 kPa stripper pressure, 120° C. stripper temperature, 3.75 kg/min liquid, 9 mol % CO2, 25 SCFM): YES
- solids at ambient conditions (in words) ([3]; listed as 3 m potassium taurinate): solids are formed
Structure (SMILES): NCCS(=O)(=O)O [3 m TAU, taurine]
- solubility of CO2-loaded solution (in words) [2]: soluble at process temperatures from 40 °C to 120° C., but potentially not soluble at room temperature

- solids at ambient conditions (in words) ([3]; listed as 5 m taurine): solids are observed
Structure (SMILES): NCCS(=O)(=O)O [5 m TAU, taurine]

- precipitation when 9 mol % CO2 continuously injected (in words) [1]: did not precipitate
Structure (SMILES): NCCC(=O)O [5 m b-ALA, Beta-alanine]

- solubility of CO2-loaded solution (in words) [2]: highly soluble with no precipitation
- Precipitation Temperature ([2]; Loading 0.35 mol CO2/mol alk.): <−10 °C
- Precipitation Temperature ([2]; Loading 0.40 mol CO2/mol alk.): <−10 °C
- Precipitation Temperature ([2]; Loading 0.45 mol CO2/mol alk.): <−10 °C
Structure (SMILES): NCCCS(=O)(=O)O [5 m homotaurine, homotaurine]
